Values quoted from earlier work, collected in patent US12350135B2, “Absorbent article with odor control composition” (The Procter & Gamble Company, priority 2021, dated 2025).
Structures can show the parent of a compound that is named as a salt.

Details: for water solubility: in water

SMILES | water solubility | solubility in water (in words)
[Na+].[O-][n+]1ccccc1[S-] [sodium pyrithione] | about 50% | 
CC1(C)C(=O)N(CO)C(=O)N1CO [DMDM hydantoin, 1,3-bis(hydroxymethyl)-5,5-dimethyI-2,4-imidazolidinedione] | more than 50% | 
ClC=CC[N+]12CN3CN(CN(C3)C1)C2.[Cl-] [Dowicil 200, 1-(3-Chlorallyl)-3,5,7-triaza-1-azoniaadamantane chloride] |  | freely soluble in water
OCc1ccccc1 [benzyl alcohol] | about 4% | 
O=[N+]([O-])C1(Br)COCOC1 [Bronidox L, 5-bromo-5-nitro-1,3-dioxane] | about 0.46% | 
CC(C)(O)C(Cl)(Cl)Cl [chlorobutanol, 1,1,1,-Trichloro-2-methylpropan-2-ol] | about 0.8% | 

Continued, in another order:

water solubility | SMILES | solubility in water (in words)
about 2.67% | OCCOc1ccccc1 [2-phenoxyethanol] | 
about 2% | OCCc1ccccc1 [2-phenylethanol] | 
about 70% | [H]/N=C(\N/C(=N/[H])NCCCCCCNC(=N)NC(=N)Nc1ccc(Cl)cc1)Nc1ccc(Cl)cc1 [chlorhexidine digluconate salt, 1,1′-hexamethylene bis(5-(p-chlorophenyl)biguanide), reference compound] | 
about 1.8% | [H]/N=C(\N/C(=N/[H])NCCCCCCNC(=N)NC(=N)Nc1ccc(Cl)cc1)Nc1ccc(Cl)cc1 [chlorhexidine diacetate salt, 1,1′-hexamethylene bis(5-(p-chlorophenyl)biguanide), reference compound] | 
